“Also recorded” adds a separate entry of the source.
How the values were obtained:
[1] = test system: IL-1β-induced NF-κB signaling in HEK-blue IL-1β cells; assay: In vitro IL-1β neutralization assay in HEK-blue IL-1β reporter cells (SEAP); assay type: cell-based, human
Excerpt: FIG. 1 illustrates inhibitory effect on IL-1β-induced NF-κB signaling of different selected IgGs from generic human phage-display libraries in HEK-blue IL-1β cells. (A) IL-1β bound to its receptor IL-1RI and its receptor accessory protein IL-1RAcP to form the IL-1β/IL-1RI/IL-1RAcP ternary complex. IL-1β induces downstream signaling pathways, including NF-κB activation (IκB degradation) and AP-1 activation (phosphorylation of JNK, p38 and ERK). (B) Ten IgGs bound to human IL-1β were selected from the generic human phage-display library.
FIG. 4 illustrates the comparison of IL-1β neutralizing abilities in different IL-1β-neutralizing antibodies. IL-1β was diluted from 1500 to 0 pM. Each antibody was added at a 5 nM concentration with different concentrations of IL-1β. HEK-blue-IL-1β cells were used to detect the IgG inhibitory effects of IL-1β signaling. The binding curve was fitted by a nonlinear regression curve to obtain the IC50.
FIG. 8 illustrates binding affinities and inhibitory effects of IgG variants selected from optimized IgG26 phage-display libraries. […] (B) Inhibitory effects on IL-1β-mediated downstream signaling were examined in 30 pM IL-1β-stimulated HEK-blue reporter cells. […]
After 16 hours, the inhibitory effect of IL-1β-induced signaling was monitored by SEAP assay. […]

[2] = target: recombinant human IL-1β (117-269 amino acids, without the pro-peptide region) (human) (UniProt P01584)
[3] = target: recombinant human IL-1β (R&D systems) (human) (UniProt P01584)
human IL-1β-induced IL-6 = assay: Cytokine biomarker assay: human IL-1β-induced serum IL-6 in mice; assay type: in vivo; conditions: 0.2 mg/kg antibody intravenously, human IL-1β 240 ng/mouse intraperitoneally, male C57BL/6 mice
Method: FIG. 5 illustrates cytokine biomarker assay. (A) The concentration of injected IgG1 at different time courses to compare the stability of IgG in male C57BL/6 mouse serum. […] Then, the mice were injected intraperitoneally with human IL-1β (240 ng/200 μL/mouse). Two hours after the injection, the mice were restrained, and blood was collected to detect the serum IL-6 level in the mice. IgG26AW treatment can inhibit the 40% induction of IL-6, which responds to human IL-1β boosting.
Then, the mice were injected intraperitoneally with recombinant human IL-1β (R&D systems) 240 ng/200 μL/mouse; then, 2.5 hours after the injection (peak IL-6 response time), the mice were restrained, and blood was collected via a facial vein with a lancet. Serum mouse IL-6 levels were measured using a Quantikine ELISA Kit (R&D System) according to the manufacturer's protocol.
To determine whether various rodent and primate disease models could be used to test the in vivo efficacy of IgG26AW, the ability of IgG26AW to bind a number of species orthologs of IL-1β was measured by SPR. […] This affinity is not sufficient to test IgG26AW efficacy in mouse disease models. […] Moreover, concentrations of IgGs after the injection in the serum were evaluated in different time courses.

Compound: O=C(OC[C@H]1O[C@@H](OC(=O)c2cc(O)c(O)c(O)c2)[C@H](OC(=O)c2cc(O)c(O)c(O)c2)[C@@H](OC(=O)c2cc(O)c(O)c(O)c2)[C@@H]1OC(=O)c1cc(O)c(O)c(O)c1)c1cc(O)c(O)c(O)c1 [PGG, 1,2,3,4,6-Penta-O-Galloyl-β-D-Glucose]
- NF-κB signaling inhibition of low dose IgG26AW combined with PGG ([1]; 69 pM IgG26AW combined with 50 μM PGG, IL-1β 588 to 0 pM (FIG. 14)): efficiently inhibits the NF-κB signaling as similar as 690 pM IgG26AW can do
- effect of PGG cotreatment with IgG26AW on IL-1β induced NF-κB signaling ([1]; 75 pM IL-1β, IgG26AW 69 nM to 0 nM, PGG 30 μM or 50 μM (FIG. 13)): synergistically reduce NF-kB signaling; also recorded: dose-dependent inhibitory effect on NF-κB signaling

Compound: canakinumab (antibody)
- IL-1β concentration whose NF-κB signal is half inhibited by 5 nM antibody (HEK-blue IL-1β cells, SEAP assay; called IC50 in the legend) [2]: 0.925 nM
- human IL-1β-induced systemic IL-6 expression in C57BL/6 mice (serum mouse IL-6, ELISA) [3]: 47%

Compound: canakinumab: marketed anti-IL-1β antibody (Novartis), synthesized from patent US20090232803
- inhibition of human IL-1β-induced systemic (serum) IL-6 (human IL-1β-induced IL-6): 47%
